The text below walks through data of ChEMBL document CHEMBL6153101, “Chamilactones A and B, Sesquiterpenes from the Endophytic Fungus Chaetomium nigricolor F5” (J Nat Prod, 2025).

Molecules are shown by their SMILES. Active and inactive are the calls of the source. The rule behind the calls is not given here.

Type in all cases: functional, cell-based
For assay [1], the system named is BV-2. Description: Anti-neuroinflammatory effect in mouse BV-2 cells assessed as decrease in LPS-mediated p-p65 expression preincubated for 2 hrs followed by stimulation with LPS for 24 hrs by Western blot analysis. Conditions: dose 10-40 µM, time 26.0 hrs. For orientation: In western blotting, separated proteins are transferred to a membrane and probed.
For assay [2], the system named is BV-2. Description: Anti-neuroinflammatory effect in mouse BV-2 cells assessed as suppression of LPS-mediated TNF-alpha secretion preincubated for 2 hrs followed by stimulation with LPS for 24 hrs by ELISA assay. The settings on record: dose 10-40 µM, time 26.0 hrs. (In an ELISA, binding on a coated surface is turned into a signal by an enzyme label.)
Assay [3] has as its system BV-2. Description: Anti-neuroinflammatory effect in mouse BV-2 cells assessed as suppression of LPS-mediated IL-6 secretion preincubated for 2 hrs followed by stimulation with LPS for 24 hrs by ELISA assay. The settings on record: dose 10-40 µM, time 26.0 hrs.
In assay [4] the test system is BV-2. Description: Anti-neuroinflammatory effect in mouse BV-2 cells assessed as decrease in LPS-mediated TLR4 expression at 10 to 40 uM preincubated for 2 hrs followed by stimulation with LPS for 24 hrs by Western blot analysis. The settings on record: dose 10-40 µM, time 26.0 hrs.
Assay [5] concerns BV-2. Description: Anti-neuroinflammatory effect in mouse BV-2 cells assessed as inhibition of LPS-mediated nuclear translocation of NF-kappaB p65 at 20 to 40 uM preincubated for 2 h followed by stimulation with LPS for 1 h by immunocytochemical analysis. Conditions: dose 20-40 µM, time 3.0 hrs.

In the case of `Cc1c2c(cc3c1CCOC3=O)CC(C)(C)C2`, the Activity result is “Dose-dependent-effect” in the assay with BV-2 [1], “Dose-dependent-effect; Exhibited Most Potent Effect” in the assay on BV-2 [2] and “Dose-dependent-effect; Exhibited Most Potent Effect” in the assay on BV-2 [3]. The result in the assay on BV-2 [4] was Active. For the same molecule, the inhibition entry in the assay on BV-2 [5] is “Active”.
